Measurements published in patent US20240391931A1 (Bristol-Myers Squibb Company, priority 2021, published 2024).

Columns and labels:
Ba/F3 HER2YVMA cells = assay: Cellular proliferation in Ba/F3 HER2YVMA cells; type: cell-based, murine; conditions: Mus musculus, BaF3, read-out: Ba/F3 YVMA GI50
Procedure: (§1) Engineered lines expressing HER2YVMA and HER2 WT were prepared in HEK293 (human embryonic kidney cells), Ba/F3 (Interleukin 3 (IL3)-dependent murine pro B cell line), and BEAS2B (primary immortalized human bronchial epithelial cell line). Ba/F3, BEAS2B, and HEK293 cells were obtained from the American Type Culture Collection (ATCC, Manassas, VA). Parental Ba/F3 cells were grown in suspension in complete RPMI 1640 supplemented with 10% FBS and 1% P/S and 10 ng/ml interleukin 3 (IL3, Sigma-Aldrich). Hek293 and BEAS2B cells were grown as monolayers in DMEM supplemented with 10% FBS and 1% P/S. All cells were maintained and propagated in a humidified 5% CO2 incubator at 37° C.
(§2) To generate Ba/F3, BEAS2B, and Hek-293 cells engineered with lentivirus to express HER2 WT or HER2YVMA, the cells were transduced with lentiviruses at multiplicity of infection (MOI) of 1 or 10; transduced cells were selected and maintained with G418 ([…]) (Geneticin, Life Technologies, Carlsbad, CA). Ba/F3 engineered cells were subjected to gradual withdrawal of interleukin 3 (IL-3, Sigma-Aldrich). After selection, IL3 independent Ba/F3 HER2YVMA, and BEAS2B HER2YVMA cells were cloned by limiting dilution. Hek293 HER2YVMA cells were used as pool. HER2 and phospho HER2 levels were confirmed by flow cytometery and immunoassay (MSD, Meso-Scale Discovery, Rockville, Maryland).
(§3) Cell proliferation in non-adherent cells was investigated in Ba/F3 parental (IL3-dependent) and in the two IL3 independent cell clones tranduced to express mutant HER2 protein containing the YVMA insertion (Ba/F3 HER2YVMA). Cells were plated in DMEM supplemented with 10% FBS, 1% P/S, and 10 ng/ml IL3 (for parental Ba/F3 only) in 96-well white clear-bottom tissue culture plates (Costar, Sigma-Aldrich) at a starting cell density of 7500 cells. An 8-point standard curve with varying cell densities (starting at 100,000 cells and serially diluting down 2-fold) was prepared for each cell line and read after plating. Compound solutions were prepared in serum free media, and cells were treated as described above for adherent cells. Cell viability was determined by CellTiter Glo (Promega, Madison, WI) after 72 h. The results were converted to cell numbers using a standard curve; growth inhibition (GI50 values) were determined by Graph Pad Prism.
(§4) The results of these experiments show the ability of compounds to inhibit cell growth in HER2 dependent cell lines and a control cell line (Ba/F3 parental) are depicted in Table 4 in the columns titled “G150 (nM)”. Ba/F3 parental results fall under the heading “Ba/F3 parental-G150”, and Ba/F3 HER2YVMA fall under the heading “Ba/F3 YVMA-G150”.

Ba/F3 parental cells = assay: Cellular proliferation in Ba/F3 parental (IL3-dependent) cells; type: cell-based, murine; conditions: Mus musculus, BaF3
Procedure: as §1, §3, §4

HER2YVMA = HER2YVMA (Homo sapiens, UniProt P04626, INS775YVMA); assay: HER2 signaling (pHER2) in Ba/F3-HER2YVMA cells; type: cell-based; set-up: expressed in transfected cells; host or cells: HEK293 (pool), Ba/F3 (clones), BEAS2B (clones); lentiviral vector pCDH-CMV-MCS-EF1-Neo; conditions: read-out: Ba/F3 YVMA pHER2 EC50
Procedure: Cell culture, plasmid cloning, and lentiviral transduction were carried out according to standard procedures. The Human HER2 cDNA construct in pCMV6-Entry for the HER2 wildtype (WT) expression was obtained from Origene. The HER2 cDNA including the 12-nucleotide insertion corresponding to YVMA insertion (HER2YVMA) was codon optimized, synthesized and cloned by GenScript (Piscataway, NJ) in pcDNA3.1. The lentiviral constructs expressing HER2YVMA and HER2 WT were sub-cloned using PCR at System Biosciences (SBI, Mountainview, CA) into lentiviral vectors pCDH-CMV-MCS-EF1-Neo and lentiviral particles were generated.
as §1, §2
Compound treatment of Ba/F3-HER2YVMA suspension cells was done as described with minor modifications. Cells were plated at 300000 cell/well in 96-well round bottom plates in RPMI supplemented with 2% FBS and immediately dosed with compounds serially diluted in media without serum for a final concentration of 1% FBS, 0.1% DMSO. Cells were incubate with compounds for 1.5 hr, and plates were spun at 1500 rpm for 5 mins to remove media without disturbing pellet. Cells were lysed as described above.
HER2 signaling was evaluated using phospho (Tyr1248)/total ErbB2 whole cell lysate MSD plates (Meso-Scale Discovery, Gaithersburg, MD). The phospho HER2 signal was normalized to total HER2 for each sample; results are reported as % DMSO control. The normalized data was fitted using a sigmoidal curve analysis program (Graph Pad Prism version 6) with variable Hill slope to determine EC50 values.
The HER2 signaling results are provided in Table 4, under columns titled “BT474-pHER2 EC50”, “N87-pHER2 EC50”, and “NCI-H1781-pHER2 EC50”. Hek293-HER2YVMA ins fall under the heading “HEKYVMA-pHER2 EC50”, Ba/F3 HER2YVMA fall under the heading “Ba/F3 YVMA-pHER2 EC50” and BEAS2B-HER2YVMA fall under the heading “BEAS2B YVMA-pHER2 EC50”.

Chain of HER2YVMA (P04626 with tags, fused parts or gaps INS775YVMA): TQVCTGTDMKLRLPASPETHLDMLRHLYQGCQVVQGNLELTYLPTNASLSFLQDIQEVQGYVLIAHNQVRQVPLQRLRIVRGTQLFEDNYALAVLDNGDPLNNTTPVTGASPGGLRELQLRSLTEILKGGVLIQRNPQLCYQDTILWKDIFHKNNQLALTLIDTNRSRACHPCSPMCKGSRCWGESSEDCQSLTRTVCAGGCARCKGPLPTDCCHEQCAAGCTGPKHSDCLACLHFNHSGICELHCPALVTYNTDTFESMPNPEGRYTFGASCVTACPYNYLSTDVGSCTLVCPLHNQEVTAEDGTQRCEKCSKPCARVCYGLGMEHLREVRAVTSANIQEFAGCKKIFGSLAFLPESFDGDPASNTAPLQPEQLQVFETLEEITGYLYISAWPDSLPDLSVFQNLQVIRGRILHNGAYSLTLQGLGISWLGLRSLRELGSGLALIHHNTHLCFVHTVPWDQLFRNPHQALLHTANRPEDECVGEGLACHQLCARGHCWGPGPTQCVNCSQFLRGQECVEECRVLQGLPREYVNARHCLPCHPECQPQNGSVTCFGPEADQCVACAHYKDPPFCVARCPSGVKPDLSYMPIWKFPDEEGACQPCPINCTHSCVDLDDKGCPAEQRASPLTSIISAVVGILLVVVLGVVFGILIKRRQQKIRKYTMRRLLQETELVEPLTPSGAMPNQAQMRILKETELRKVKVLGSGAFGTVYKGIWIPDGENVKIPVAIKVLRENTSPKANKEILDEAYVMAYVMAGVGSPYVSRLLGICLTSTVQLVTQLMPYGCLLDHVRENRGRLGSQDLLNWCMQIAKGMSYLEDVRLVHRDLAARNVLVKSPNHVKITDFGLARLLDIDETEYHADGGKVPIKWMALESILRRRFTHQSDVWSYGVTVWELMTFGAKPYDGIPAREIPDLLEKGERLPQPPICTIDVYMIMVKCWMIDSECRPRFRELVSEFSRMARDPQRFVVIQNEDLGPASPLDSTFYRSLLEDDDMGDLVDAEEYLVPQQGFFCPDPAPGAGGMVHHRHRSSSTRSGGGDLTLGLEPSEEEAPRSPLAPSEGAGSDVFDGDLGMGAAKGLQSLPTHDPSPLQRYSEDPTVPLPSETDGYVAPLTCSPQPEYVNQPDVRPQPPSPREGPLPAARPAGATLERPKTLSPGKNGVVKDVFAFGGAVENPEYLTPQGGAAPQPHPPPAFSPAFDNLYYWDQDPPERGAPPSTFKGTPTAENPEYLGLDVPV

| Compound | GI50 (Ba/F3 HER2YVMA cells) | EC50 (HER2YVMA) | GI50 (Ba/F3 parental cells) |
| --- | --- | --- | --- |
| Cc1ccc(Oc2ccc(Nc3ncnc4sc5c(c34)C(C)CN(C(=O)C=CCN(C)C)C5)cc2C)cn1 (single isomer, unassigned) [Compound 106] | < 100 nM | – | 1 to 10 µM |
| CN(C)C/C=C/C(=O)N1CCc2c(sc3ncnc(Nc4ccc(Oc5ccc6ncnn6c5)c(Cl)c4)c23)C1 [Compound 5, (E)-1-(4-((4-([1,2,4]triazolo[1,5-a]pyridin-6-yloxy)-3-chlorophenyl)amino)-5,8-dihydropyrido[4′,3′:4,5]thieno[2,3-d]pyrimidin-7(6H)-yl)-4-(dimethylamino)but-2-en-1-one] | – | < 100 nM | – |
| Cc1ccc(Oc2ccc(Nc3ncnc4sc5c(c34)CCN(C(=O)/C=C/CN3CC4C(CO)C4C3)C5)cc2C)cn1 (stereo not shown) [Compound 34] | < 100 nM | < 100 nM | 1 to 10 µM |

Further lines, with some results ahead:

| GI50 (Ba/F3 HER2YVMA cells) | EC50 (HER2YVMA) | Compound | GI50 (Ba/F3 parental cells) |
| --- | --- | --- | --- |
| < 100 nM | < 100 nM | Cc1ccc(Oc2ccc(Nc3ncnc4sc5c(c34)CCN(C(=O)/C=C/CN(C)C(C)(C)C)C5)cc2C)cn1 [Compound 33] | 1 to 10 µM |
| < 100 nM | – | COc1ccc(Oc2ccc(Nc3ncnc4sc5c(c34)CCN(C(=O)/C=C/CN(C)C)C5)cc2C)cn1 [Compound 95, (E)-4-(Dimethylamino)-1-(4-((4-((6-methoxypyridin-3-yl)oxy)-3-methylphenyl)amino)-5,6-dihydropyrido[4′,3′:4,5]thieno[2,3-d]pyrimidin-7(8H)-yl)but-2-en-1-one] | 1 to 10 µM |
| < 100 nM | – | Cc1ccc(Oc2ccc(Nc3ncnc4sc5c(c34)CN(C(=O)/C=C/CN(C)C)C5)cc2C)cn1 [Compound 99, (E)-4-(dimethylamino)-1-(4-((3-methyl-4-((6-methylpyridin-3-yl)oxy)phenyl)amino)-5,7-dihydro-6H-pyrrolo[3′,4′:4,5]thieno[2,3-d]pyrimidin-6-yl)but-2-en-1-one] | 1 to 10 µM |
